In experiment [1] the target is T1, Asp2-Fc enzyme (Homo sapiens, UniProt P56817).
T1 construct: A cDNA fragment encoding Asp 2, amino acids 1 to 460; made in house; host or cells: CHO E1A (derived from DG-44), secreted, purified on Protein A
Kind of experiment: Fluorescence Resonance Energy Transfer (FRET) cleavage assay for Asp2. The class given is biochemical. To be noted: 0.5 uM fluorescent Swedish variant APP beta-site peptide substrate, 25 nM enzyme, pH 3.8. The protocol:
Preparation of Asp 2—Fc Fusion Protein (Asp 2(1-460)-Fc)
A cDNA fragment encoding Asp 2, amino acids 1 to 460 (EP855444 but with 130 Glu->Val), was subcloned to create a fusion protein with human immunoglobulin, residues 99-330 of IgGI, and cloned into the mammalian expression vector pCDN (Aiyar et al). The plasmid was linearized by digestion with Not 1 (15 ug DNA, 37′C, overnight), sterially precipitated and resuspended into 50 ul 1 X TE buffer (10 mM Tris, 1 mM EDTA, pH 7.5). […]
A peptide (X) based on the sequence of the Swedish variant APP beta-site sequence has been doubly labelled for use in a FRET assay. […] This would allow cleavage of the intervening peptide sequence by Asp2 to be monitored by energy transfer between the two fluorescent groups.
The fluorescent peptide substrate (0.5 uM) was incubated with Asp2-Fc enzyme, prepared as described above, in a buffer containing 50 mM sodium acetate, 20 mM sodium chloride, 5% glycerol, 0.1% CHAPS (3-[(3-Cholamidopropyl) dimethylammonio]-1-propane-sulphonate), pH 3.8). The assays were started by addition of enzyme (25 nM final concentration) and cleavage monitored on a fluorescent platereader with 485 nm excitation, 538 nm emission. […]
This assay was used to determine IC50 and Ki values for compounds of interest. […] Asp 2 Fluorescence Polarisation Assay.

For experiment [2], the target named is T1, Asp2-Fc enzyme. Kind of experiment: Asp 2 fluorescence polarisation assay, Kd of labelled ligand. To be noted: ligand 1-100 nM, enzyme from 100 nM down in twofold dilutions, pH 4.0, 15 min equilibration, anisotropy; read-out: Kd for the tight binding interaction. The protocol:
A competition assay has also been designed to identify compounds acting at the Asp2 active site. The hydroxyethylene inhibitor, (I), has been modified by addition of 5-, 6-rhodamine green to the free N-terminal amine of the compound to create labelled ligand (III). [drawing 4] The resulting compound was tested experimentally as follows to determine the Kd with Asp2-Fc enzyme, prepared as above.
A three dimensional analysis varying enzyme and compound (III) was performed. Ligand concentration range was 1, 3, 10, 30 and 100 nM. Enzyme concentration range was from 100 nM down in serial twofold dilutions (11 dilutions+no enzyme control). Ligand of appropriate concentration was prepared in 5% DMSO. The enzyme solutions were prepared in 2 times (×2) assay buffer (where ×1=50 mM sodium acetate, 20 mM sodium chloride, 5% glycerol, 0.1% CHAPS, pH 4.0). 5 ul of the enzyme solution (of varying concentration) was mixed with 5 ul of the ligand (of varying concentration) in a low volume 384 microtitre plate. The samples were allowed to equilibrate for 15 min before the fluorescence polarisation was read on an LJL Acquest platereader.
The Anisotropy values were plotted and the Kd for the tight binding interaction obtained.

Experiment [3] has as its target T1, Asp2-Fc enzyme. Kind of experiment: Asp 2 fluorescence polarisation competition assay against labelled ligand (III). It is filed as binding. The protocol: Enzyme (at a fixed concentration of 25 nM), ligand (III) (at a fixed concentration of 2.5 nM) and test compound (10 uM down in twofold serial dilutions) were mixed in ×1 assay buffer (50 mM 50 mM sodium acetate, 20 mM sodium chloride, 5% glycerol, 0.1% CHAPS, pH 3.8) in a final assay volume of 10 ul and allowed to equilibrate for 3 hrs. The fluorescence polarisation was then read. The experiment was performed in duplicate.
On the technique in general: Polarisation of emitted light reports the rotation of a fluorescent probe.

Starred links: 1 amine or outer side, 2 acyl side, 3 side chain; linkers in the order of their positions; H or OH if unused. Non-standard residues stand in square brackets, D forms with d. Residues, ends and D or L forms follow the SMILES beside them. *: point of attachment. Hexanoyl(5S-NH,4S-OH,6-Ph) = O=C(CC[C@H](O)[C@H](Cc1ccccc1)N[*:1])[*:2]; X2 = C[C@H](C[C@H](O)[C@H](Cc1ccccc1)N[*:1])C(=O)[*:2]; X3 = Nc1ccc2c(c1)Oc1ccccc1C21OC(=O)c2cc(C(=O)*)ccc21; X1 = CC(C)C[C@H](N[*:1])[C@@H](O)CCC(=O)[*:2]

On Asp2-Fc enzyme [1], `CC(C)[C@H](NC(=O)[C@@H](N)CCC(=O)O)C(=O)N[C@@H](CC(N)=O)C(=O)N[C@@H](Cc1ccccc1)[C@@H](O)C[C@@H](C)C(=O)N[C@@H](C)C(=O)N[C@@H](CCC(=O)O)C(=O)N[C@@H](Cc1ccccc1)C(=O)O` [(II)] (H-EVN[X2]AEF-OH) yielded a Ki of 7.3 nM. Same read-out and setting: the result for `CC(C)[C@H](NC(=O)[C@@H](N)CCC(=O)O)C(=O)N[C@@H](CC(N)=O)C(=O)N[C@@H](Cc1ccccc1)[C@@H](O)CCC(=O)N[C@@H](C)C(=O)N[C@@H](CCC(=O)O)C(=O)N[C@@H](Cc1ccccc1)C(=O)O` [(I)] (H-EVN[Hexanoyl(5S-NH,4S-OH,6-Ph)]AEF-OH) reads 7.7 nM. `CC(C)[C@H](NC(=O)[C@H](CCC(=O)O)NC(=O)c1ccc2c(c1)C(=O)OC21c2ccccc2Oc2cc(N)ccc21)C(=O)N[C@@H](CC(N)=O)C(=O)N[C@@H](Cc1ccccc1)[C@@H](O)CCC(=O)N[C@@H](C)C(=O)N[C@@H](CCC(=O)O)C(=O)N[C@@H](Cc1ccccc1)C(=O)O` (stereo partly drawn) [(III)] (X3-EVN[Hexanoyl(5S-NH,4S-OH,6-Ph)]AEF-OH): on Asp2-Fc enzyme [2], the Kd stood at 1.22 nM. For `CC(C)C[C@H](NC(=O)[C@H](C)NC(=O)[C@@H](NC(=O)[C@@H](N)CCC(=O)O)C(C)C)[C@@H](O)CCC(=O)N[C@@H](C)C(=O)N[C@@H](CCC(=O)O)C(=O)N[C@@H](Cc1ccccc1)C(=O)O` [Compound (IV)] (H-EVA[X1]AEF-OH), the Ki at Asp2-Fc enzyme [3] (25 nM enzyme, 2.5 nM ligand (III), pH 3.8, 3 hrs equilibration, duplicate) amounted to 67.5 nM. In addition, at Asp2-Fc enzyme [3] (at the highest concentrations of test compound (10 uM down in twofold serial dilutions)), the “displacement of the fluorescent ligand (III)” value was “Complete displacement”.

One may read the Kd as the free concentration of one partner at which half of the binding sites on the other are occupied at equilibrium, for simple one-to-one binding.

The record behind these values is US20070021348A1, “Novel treatment” (SmithKline Beecham Corp., & SmithKline Beecham, p.l.c., priority 1999, published 2007).
